Experimental data as given in PubChem BioAssay AID256 (DTP/NCI, 2004).
Where “and” joins values, the source holds several entries; their conditions need not be identical. Identical values can stand only once. Inconclusive results and toxic doses are left out. Rule for the calls: active = survival T/C of 150% or more; inactive = T/C below 125% in these data.

Tested on: CD2F1 mice, L1210 leukemia ip, survival T/C
Test: NCI In Vivo Anticancer Drug Screen. Data for tumor model L1210 Leukemia (intraperitoneal) in CD2F1 (CDF1) mice
Conditions: higher = longer survival
Method in brief: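 Antitumor effect is scored in animals hosting a serially transplanted tumor. Values compare compound-dosed animals against vehicle-only controls as a simple quotient.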

[1] = endpoint: mean survival time, dose: 100.0 mg/kg/injection, schedule: Q04DX003 (ip), vehicle: saline
[2] = endpoint: mean survival time, dose: 200.0 mg/kg/injection, schedule: Q04DX003 (ip), vehicle: saline
[3] = endpoint: mean survival time, dose: 400.0 mg/kg/injection, schedule: Q04DX003 (ip), vehicle: saline
[4] = endpoint: mean survival time, dose: 25.0 mg/kg/injection, schedule: Q01DX009 (ip), vehicle: saline with Tween-80
[5] = endpoint: mean survival time, dose: 50.0 mg/kg/injection, schedule: Q01DX009 (ip), vehicle: saline with Tween-80
[6] = endpoint: mean survival time, dose: 100.0 mg/kg/injection, schedule: Q01DX009 (ip), vehicle: saline with Tween-80
[7] = endpoint: mean survival time, dose: 200.0 mg/kg/injection, schedule: Q01DX009 (ip), vehicle: saline with Tween-80
[8] = endpoint: mean survival time, dose: 400.0 mg/kg/injection, schedule: Q01DX009 (ip), vehicle: saline with Tween-80
[9] = endpoint: mean survival time, dose: 100.0 mg/kg/injection, schedule: Q04DX003 (ip), vehicle: saline with Tween-80
[10] = endpoint: mean survival time, dose: 200.0 mg/kg/injection, schedule: Q04DX003 (ip), vehicle: saline with Tween-80
[11] = endpoint: mean survival time, dose: 400.0 mg/kg/injection, schedule: Q04DX003 (ip), vehicle: saline with Tween-80
[12] = endpoint: mean survival time, dose: 100.0 mg/kg/injection, schedule: Q01DX001 (ip), vehicle: saline
[13] = endpoint: mean survival time, dose: 200.0 mg/kg/injection, schedule: Q01DX001 (ip), vehicle: saline
[14] = endpoint: mean survival time, dose: 50.0 mg/kg/injection, schedule: Q01DX009 (ip), vehicle: saline
[15] = endpoint: mean survival time, dose: 100.0 mg/kg/injection, schedule: Q01DX009 (ip), vehicle: saline

Measured: T/C

CN(C)C(=O)SC1=C(c2c(Cl)cccc2Cl)C(=O)c2ccccc21
inactive: endpoint: median survival time, dose: 25.0 mg/kg/injection, schedule: Q01DX009 (ip), vehicle: Klucel (hydroxypropylcellulose) (HPC) 112 % of control | endpoint: median survival time, dose: 50.0 mg/kg/injection, schedule: Q01DX009 (ip), vehicle: Klucel (hydroxypropylcellulose) (HPC) 112 % of control | endpoint: median survival time, dose: 100.0 mg/kg/injection, schedule: Q01DX009 (ip), vehicle: Klucel (hydroxypropylcellulose) (HPC) 104 % of control | endpoint: median survival time, dose: 200.0 mg/kg/injection, schedule: Q01DX009 (ip), vehicle: Klucel (hydroxypropylcellulose) (HPC) 101 % of control | endpoint: median survival time, dose: 400.0 mg/kg/injection, schedule: Q01DX009 (ip), vehicle: Klucel (hydroxypropylcellulose) (HPC) 108 % of control

O=C(O)C1C2CC3C(OC(=O)C31)C2Br (stereo not given)
inactive: [1] 105 % of control | [2] 96 % of control | [3] 102 % of control

OC(CC(CC(O)(C(F)(F)F)C(F)(F)F)=NNc1ccccc1)(C(F)(F)F)C(F)(F)F
inactive: [4] 92 % of control | [5] 93 % of control

O=C(CNC(=O)c1ccccc1)N/N=C/c1ccccc1O
inactive: [6] 94 % of control | [7] 95 % of control | [8] 89 % of control

Cc1n[nH]c2ccc(Br)cc2c1=O
inactive: [5] 97 % of control | [6] 91 % of control | [9] 101 % of control | [7] 101 % of control | [10] 87 % of control

CC(O)(CCCCCCCC(C)(O)c1ccccc1)c1ccccc1 (stereo not given)
inactive: [9] 113 % of control | [10] 103 % of control | [11] 88 % of control

Cn1cnc([N+](=O)[O-])c1S(=O)(=O)NCN1CCOCC1
inactive: endpoint: mean survival time, dose: 6.25 mg/kg/injection, schedule: Q01DX009 (ip), vehicle: Klucel (hydroxypropylcellulose) (HPC) 95 % of control | endpoint: mean survival time, dose: 12.5 mg/kg/injection, schedule: Q01DX009 (ip), vehicle: Klucel (hydroxypropylcellulose) (HPC) 118 % of control and 101 % of control | endpoint: mean survival time, dose: 25.0 mg/kg/injection, schedule: Q01DX009 (ip), vehicle: Klucel (hydroxypropylcellulose) (HPC) 101 % of control and 106 % of control | endpoint: mean survival time, dose: 50.0 mg/kg/injection, schedule: Q01DX009 (ip), vehicle: Klucel (hydroxypropylcellulose) (HPC) 95 % of control and 110 % of control | endpoint: mean survival time, dose: 100.0 mg/kg/injection, schedule: Q01DX009 (ip), vehicle: Klucel (hydroxypropylcellulose) (HPC) 96 % of control

CC1=C(/C=C/C(O)CC(O)(C(F)(F)F)C(F)(F)F)C(C)(C)CCC1 (stereo not given)
inactive: [1] 107 % of control | [2] 98 % of control | [3] 110 % of control

CCN(CC)CCSCCSCCN(CC)CC
inactive: [12] 100 % of control | [13] 100 % of control

COc1ccc(CC(N)C(=O)O)cc1N(CCCl)CCCl (stereo not given)
inactive: endpoint: mean survival time, dose: 3.2 mg/kg/injection, schedule: Q01DX001 (ip), vehicle: carboxymethylcellulose (CMC) 122 % of control

O=C(CCCCl)Nc1cc([N+](=O)[O-])ccc1OCc1ccccc1
inactive: [12] 94 % of control | [13] 94 % of control | endpoint: mean survival time, dose: 400.0 mg/kg/injection, schedule: Q01DX001 (ip), vehicle: saline 94 % of control

CC(=O)Oc1cc(C(C)(C)C)c(OC(C)=O)c(N=[N+]=[N-])c1C(C)(C)C
inactive: [9] 96 % of control | [10] 101 % of control | [11] 96 % of control

C/C(=N\NC(=O)c1ccccc1O)c1cccc(/C(C)=N/NC(=O)c2ccccc2O)n1
inactive: endpoint: median survival time, dose: 3.0 mg/kg/injection, schedule: Q01DX009 (ip), vehicle: saline 101 % of control | endpoint: median survival time, dose: 6.0 mg/kg/injection, schedule: Q01DX009 (ip), vehicle: saline 106 % of control | endpoint: median survival time, dose: 12.0 mg/kg/injection, schedule: Q01DX009 (ip), vehicle: saline 101 % of control | endpoint: median survival time, dose: 25.0 mg/kg/injection, schedule: Q01DX009 (ip), vehicle: saline 93 % of control

O.O=[Se](=O)(O)O.[NH-]C1CCCCC1[NH-].[Pt+2] (stereo not given)
inactive: endpoint: mean survival time, dose: 2.0 mg/kg/injection, schedule: Q01DX009 (ip), vehicle: dextrose 88 % of control | endpoint: mean survival time, dose: 3.0 mg/kg/injection, schedule: Q01DX009 (ip), vehicle: dextrose 109 % of control | endpoint: mean survival time, dose: 8.0 mg/kg/injection, schedule: Q04DX003 (ip), vehicle: dextrose 87 % of control

COC(=N)Cc1ccc(OC)c(OC)c1
inactive: [9] 102 % of control | [10] 96 % of control | [11] 94 % of control

C[Si](C)(CCl)N[Si](C)(C)CCl
inactive: [6] 100 % of control | [9] 98 % of control | [7] 97 % of control | [10] 96 % of control | [8] 100 % of control | [11] 102 % of control

O=C(O)[C@H](Cc1ccccc1)N1C(=O)c2ccccc2C1=O
inactive: endpoint: median survival time, dose: 75.0 mg/kg/injection, schedule: Q01DX005 (ip), vehicle: DMSO 96 % of control | endpoint: median survival time, dose: 150.0 mg/kg/injection, schedule: Q01DX005 (ip), vehicle: DMSO 93 % of control | endpoint: median survival time, dose: 300.0 mg/kg/injection, schedule: Q01DX005 (ip), vehicle: DMSO 96 % of control | endpoint: median survival time, dose: 600.0 mg/kg/injection, schedule: Q01DX005 (ip), vehicle: DMSO 98 % of control

NS(=O)(=O)Cc1ccccc1
inactive: endpoint: mean survival time, dose: 25.0 mg/kg/injection, schedule: Q04DX003 (ip), vehicle: saline 107 % of control | endpoint: mean survival time, dose: 50.0 mg/kg/injection, schedule: Q04DX003 (ip), vehicle: saline 117 % of control | [1] 90 % of control and 92 % of control

CCn1c(=O)c2[nH]c(Cl)nc2n(CC)c1=O
inactive: endpoint: mean survival time, dose: 25.0 mg/kg/injection, schedule: Q04DX003 (ip), vehicle: Klucel (hydroxypropylcellulose) (HPC) 102 % of control | endpoint: mean survival time, dose: 50.0 mg/kg/injection, schedule: Q04DX003 (ip), vehicle: Klucel (hydroxypropylcellulose) (HPC) 105 % of control | endpoint: mean survival time, dose: 100.0 mg/kg/injection, schedule: Q04DX003 (ip), vehicle: Klucel (hydroxypropylcellulose) (HPC) 107 % of control

C1CC[N-]CC1.C1CC[N-]CC1.C1CC[N-]CC1.C1CC[N-]CC1.N#C[S-].N#C[S-].[Ni]
inactive: endpoint: mean survival time, dose: 10.0 mg/kg/injection, schedule: Q04DX003 (ip), vehicle: Klucel (hydroxypropylcellulose) (HPC) 90 % of control | endpoint: mean survival time, dose: 20.0 mg/kg/injection, schedule: Q04DX003 (ip), vehicle: Klucel (hydroxypropylcellulose) (HPC) 91 % of control | endpoint: mean survival time, dose: 40.0 mg/kg/injection, schedule: Q04DX003 (ip), vehicle: Klucel (hydroxypropylcellulose) (HPC) 96 % of control

CC(=O)OC1CCC2(C)C(CCC3C2C(=O)C(OC(C)=O)C2(C)C3CC3OC4(CCC(C)CO4)C(C)C32)C1 (stereo not given)
inactive: [9] 87 % of control | [10] 87 % of control | [11] 89 % of control

O=C(OC(c1ccccc1)c1ccccc1)C(CSC(c1ccccc1)(c1ccccc1)c1ccccc1)NC(c1ccccc1)(c1ccccc1)c1ccccc1 (stereo not given)
inactive: [14] 96 % of control | [15] 101 % of control | endpoint: mean survival time, dose: 200.0 mg/kg/injection, schedule: Q01DX009 (ip), vehicle: saline 102 % of control | endpoint: mean survival time, dose: 400.0 mg/kg/injection, schedule: Q01DX009 (ip), vehicle: saline 98 % of control

C[n+]1ccccc1NC(=O)c1ccccc1
inactive: [9] 98 % of control | [10] 95 % of control | [11] 88 % of control

CN1CCN(c2ccc([N+](=O)[O-])c3no[n+]([O-])c23)CC1
inactive: endpoint: mean survival time, dose: 2.5 mg/kg/injection, schedule: Q01DX009 (ip), vehicle: saline with Tween-80 105 % of control and 112 % of control | endpoint: mean survival time, dose: 5.0 mg/kg/injection, schedule: Q01DX009 (ip), vehicle: saline with Tween-80 114 % of control and 108 % of control | endpoint: mean survival time, dose: 5.0 mg/kg/injection, schedule: Q01DX009 (ip), vehicle: saline 123 % of control | endpoint: mean survival time, dose: 10.0 mg/kg/injection, schedule: Q01DX009 (ip), vehicle: saline with Tween-80 116 % of control and 110 % of control | endpoint: mean survival time, dose: 20.0 mg/kg/injection, schedule: Q01DX009 (ip), vehicle: saline with Tween-80 117 % of control and 119 % of control | endpoint: mean survival time, dose: 40.0 mg/kg/injection, schedule: Q01DX009 (ip), vehicle: saline with Tween-80 122 % of control and 103 % of control | endpoint: mean survival time, dose: 80.0 mg/kg/injection, schedule: Q01DX009 (ip), vehicle: saline with Tween-80 121 % of control

COc1ccc(/C=N/NC(=O)CNC(=O)Nc2cccc([N+](=O)[O-])c2)cc1
inactive: [5] 89 % of control | [6] 93 % of control | [7] 93 % of control

COc1cccc(CC(C)N)c1OC (stereo not given)
inactive: endpoint: mean survival time, dose: 25.0 mg/kg/injection, schedule: Q01DX009 (ip), vehicle: saline 98 % of control | [14] 95 % of control | [15] 93 % of control | [9] 95 % of control

CC(=O)CC(=O)c1cccnc1
inactive: [9] 103 % of control | [10] 97 % of control | [11] 101 % of control

N#CCCN(N=O)C(=O)Nc1ccccc1
inactive: endpoint: mean survival time, dose: 6.25 mg/kg/injection, schedule: Q01DX Z (ip), vehicle: carboxymethylcellulose (CMC) 110 % of control | endpoint: mean survival time, dose: 12.5 mg/kg/injection, schedule: Q01DX Z (ip), vehicle: carboxymethylcellulose (CMC) 115 % of control | endpoint: mean survival time, dose: 75.0 mg/kg/injection, schedule: Q01DX Z (ip), vehicle: carboxymethylcellulose (CMC) 102 % of control

O=[N+]([O-])c1cc2ccccc2c(O)c1O
inactive: [4] 102 % of control | [5] 108 % of control | [9] 91 % of control
